The first experiment relates to HIV. Put plainly: Anti-HIV activity (MT-4 cells, MTT). The following applies: Human immunodeficiency virus 1, MT4, 96 h, read-out: EC50_nM (50% HIV inhibitory concentration). The experiment is classed as cell-based. As to the method:
Serial dilutions of a test sample were prepared in a 96-well microplate (50 μL/well). 2.5×10^5 cells/mL of an MT-4 cell suspension was dispensed at 100 μL/well to the plate containing the test sample. Then, an HIV virus solution was dispensed at 50 μL/well. The plate was mixed with a plate mixer and cultured for 4 days in a CO2 incubator. An MTT (3-(4,5-dimethylthiazol-2-yl)-2,5-diphenyltetrazolium bromide) solution was dispensed at 30 μL/well. The plate was reacted for 1 hour in a CO2 incubator. 150 μL of the supernatant was removed from each well so as not to take up the cells. 150 μL of a cell lysis solution was added to each well and well mixed with a plate mixer until the cells were completely lysed. The absorbance of the mixed plate was measured at two wavelengths of 560 nm and 690 nm using a microplate reader.
As to `CN1C(=O)c2c(O)c(=O)c(-c3nnc(Cc4ccc(F)cc4F)s3)cn2N2CCOC[C@H]12` [II-009], the EC50 was 1.3 nM.

Still in this experiment, the particulars now being: Human immunodeficiency virus 1, MT4, 96 h, read-out: EC50_nM (50% HIV inhibitory concentration); MT-4 cells, cultured 4 days, MTT.
For `CCN1C(=O)c2c(O)c(=O)c(-c3ncc(Cc4ccc(F)cc4F)s3)cn2N2CCCC[C@H]12` [Compound I-003], the EC50 stood at 7.1 nM. Take `CCN1C(=O)c2c(O)c(=O)c(-c3nnc(Cc4cccc(Cl)c4F)s3)cn2N2CCCC[C@H]12` [Compound I-005]: the EC50 was determined as 3.2 nM. Regarding `CCN1C(=O)c2c(O)c(=O)c(-c3nnc(Cc4cccc(Cl)c4F)s3)cn2N2CCCC[C@@H]12` [Compound I-006], the EC50 amounted to 2.7 nM. On the same count and under the same terms, as for `CCN1C(=O)c2c(O)c(=O)c(-c3nnc(Cc4c(F)cc(F)cc4F)s3)cn2N2CCCC[C@H]12` [Compound I-007], the figure is 2.2 nM.

`CCN1C(=O)c2c(O)c(=O)c(-c3nnc(Cc4ccc(F)c(Cl)c4)s3)cn2N2CCCC[C@H]12` [Compound I-009]: the EC50 was 7.2 nM. In the case of `CCN1C(=O)c2c(O)c(=O)c(-c3nnc(Cc4ccc(F)c(Cl)c4)s3)cn2N2CCCC[C@@H]12` [Compound I-010], the EC50 stood at 3.8 nM. As to `CCN1C(=O)c2c(O)c(=O)c(-c3nnc(Cc4cc(F)c(F)cc4F)s3)cn2N2CCCC[C@H]12` [Compound I-011], the EC50 was found to be 5 nM. Take `CCN1C(=O)c2c(O)c(=O)c(-c3nnc(Cc4ccc(F)c(F)c4F)s3)cn2N2CCCC[C@H]12` [Compound I-013]: the EC50 was 3 nM.

`CCN1C(=O)c2c(O)c(=O)c(-c3nnc(Cc4ccc(F)c(F)c4F)s3)cn2N2CCCC[C@@H]12` [Compound I-014]: the EC50 was determined as 1.3 nM.

For the compound `CN1C(=O)c2c(O)c(=O)c(-c3nnc(Cc4cccc(Cl)c4F)s3)cn2N2CCCC[C@H]12` [II-001], the EC50 is 4.3 nM. For the compound `CN1C(=O)c2c(O)c(=O)c(-c3nnc(Cc4cccc(Cl)c4F)s3)cn2N2CCCC[C@@H]12` [II-002], the EC50 worked out at 1.6 nM. As for `CN1C(=O)c2c(O)c(=O)c(-c3nnc(Cc4c(F)cc(F)cc4F)s3)cn2N2CCCC[C@@H]12` [II-004], the EC50 amounted to 0.7 nM. Turning to `CCN1C(=O)c2c(O)c(=O)c(-c3cnn(Cc4ccc(F)cc4F)c3)cn2N2CCCC[C@H]12` [II-005], the EC50 was determined as 9.7 nM.

As to `CCN1C(=O)c2c(O)c(=O)c(-c3cnn(Cc4cccc(Cl)c4F)c3)cn2N2CCCC[C@H]12` [II-007], the EC50 came to 14 nM. Take `CCN1C(=O)c2c(O)c(=O)c(-c3cnn(Cc4cccc(Cl)c4F)c3)cn2N2CCCC[C@@H]12` [II-008]: the EC50 stood at 4.5 nM.

`CN1C(=O)c2c(O)c(=O)c(-c3nnc(Cc4c(F)cc(F)cc4F)s3)cn2N2CCOC[C@H]12` [II-011]: the EC50 is 0.5 nM.

As for `CN1C(=O)c2c(O)c(=O)c(-c3nnc(Cc4c(F)cc(F)cc4F)s3)cn2N2CCOC[C@@H]12` [II-012], the EC50 amounted to 0.25 nM. On the same count and under the same terms, with `CCN1C(=O)c2c(O)c(=O)c(-c3cnn(Cc4ncc(Cl)cc4F)c3)cn2N2CCCC[C@H]12` [II-014] the figure was 61 nM; with `CCN1C(=O)c2c(O)c(=O)c(-c3nnc(Cc4ccc(F)cc4F)s3)cn2N2CCOC[C@H]12` [II-015], 1.6 nM; with `CCN1C(=O)c2c(O)c(=O)c(-c3nnc(Cc4ccc(F)cc4F)s3)cn2N2CCOC[C@@H]12` [II-016], 0.19 nM.

As to `CCN1C(=O)c2c(O)c(=O)c(-c3nnc(Cc4c(F)cc(F)cc4F)s3)cn2N2CCOC[C@H]12` [II-017], the EC50 is 1.1 nM. For the compound `CCN1C(=O)c2c(O)c(=O)c(-c3nnc(Cc4ccc(F)cc4)s3)cn2N2CCOC[C@H]12` [II-019], the EC50 was 2.1 nM. On the same count and under the same terms, as for `CCN1C(=O)c2c(O)c(=O)c(-c3nnc(Cc4ccc(F)cc4)s3)cn2N2CCOC[C@@H]12` [II-020], the figure is 0.7 nM; as for `CCN1C(=O)c2c(O)c(=O)c(-c3nnc(Cc4ccc(F)cc4F)s3)cn2N2C[C@@H](C)C[C@H]12` [II-021], 2.6 nM. For `CCN1C(=O)c2c(O)c(=O)c(-c3nnc(Cc4ccc(F)cc4F)s3)cn2N2CC[C@H](C)[C@@H]12` [II-022], the EC50 was 0.67 nM. `CCN1C(=O)c2c(O)c(=O)c(-c3nnc(Cc4c(F)cc(F)cc4F)s3)cn2N2C[C@@H](C)C[C@H]12` [II-025]: the EC50 was found to be 0.9 nM. Consider `CCN1C(=O)c2c(O)c(=O)c(-c3nnc(Cc4c(F)cc(F)cc4F)s3)cn2N2CC[C@H](C)[C@@H]12` [II-026], for which the EC50 is 0.39 nM. Turning to `C[C@@H]1CC[C@@H]2N(C)C(=O)c3c(O)c(=O)c(-c4nnc(Cc5ccc(F)cc5F)s4)cn3N12` [II-028], the EC50 stood at 0.13 nM.

Consider `C[C@@H]1CC[C@@H]2N(C)C(=O)c3c(O)c(=O)c(-c4nnc(Cc5c(F)cc(F)cc5F)s4)cn3N12` [II-030], for which the EC50 turned out to be 1.4 nM.

Turning to `C[C@@H]1CC[C@H]2N(C)C(=O)c3c(O)c(=O)c(-c4nnc(Cc5c(F)cc(F)cc5F)s4)cn3N12` [II-031], the EC50 turned out to be 0.13 nM. `C[C@H]1CCN2[C@@H](C1)N(C)C(=O)c1c(O)c(=O)c(-c3nnc(Cc4ccc(F)cc4F)s3)cn12` [II-032]: the EC50 came out at 0.13 nM. On the same count and under the same terms, as for `C[C@@H]1CCN2[C@@H](C1)N(C)C(=O)c1c(O)c(=O)c(-c3nnc(Cc4ccc(F)cc4F)s3)cn12` [II-034], the figure is 0.13 nM; as for `CN1C(=O)c2c(O)c(=O)c(-c3nnc(Cc4c(F)cc(F)cc4F)s3)cn2N2C[C@@H]3CC[C@@H](O3)[C@@H]12` [II-035], 0.28 nM; as for `CN1C(=O)c2c(O)c(=O)c(-c3nnc(Cc4c(F)cc(F)cc4F)s3)cn2N2C[C@H]3CC[C@H](O3)[C@H]12` [II-036], 2 nM. The same measure, in the same setting: as for `CN1C(=O)c2c(O)c(=O)c(-c3nnc(Cc4ccc(F)cc4F)s3)cn2N2Cc3ccccc3[C@H]12` [II-039], the figure is 3.8 nM. Consider `CN1C(=O)c2c(O)c(=O)c(-c3nnc(Cc4ccc(F)cc4F)s3)cn2N2Cc3ccccc3[C@@H]12` [II-040], for which the EC50 came out at 1.3 nM. Regarding `C[C@H]1CC[C@H]2N(C)C(=O)c3c(O)c(=O)c(-c4nnc(Cc5c(F)cc(F)cc5F)s4)cn3N2C1` [II-042], the EC50 turned out to be 0.2 nM. For the compound `CCN1C(=O)c2c(O)c(=O)c(-c3nnc(Cc4c(F)cc(F)cc4F)s3)cn2N2C[C@H]3CC[C@H](O3)[C@H]12` [II-045], the EC50 came to 2 nM.

`CCN1C(=O)c2c(O)c(=O)c(-c3nnc(Cc4ccc(F)cc4F)s3)cn2N2C[C@H]3CC[C@H](O3)[C@H]12` [II-047]: the EC50 came out at 1.4 nM. Consider `CCN1C(=O)c2c(O)c(=O)c(-c3nnc(Cc4ccc(F)cc4)s3)cn2N2C[C@H]3CC[C@H](O3)[C@H]12` [II-049], for which the EC50 was 1.6 nM. In the case of `CC(C)N1C(=O)c2c(O)c(=O)c(-c3nnc(Cc4c(F)cc(F)cc4F)s3)cn2N2C[C@H]3CC[C@H](O3)C12` (stereo partly drawn) [II-053], the EC50 was 1.3 nM. For `CC(C)N1C(=O)c2c(O)c(=O)c(-c3nnc(Cc4ccc(F)cc4F)s3)cn2N2CC[C@@H](C)C[C@@H]12` [II-059], the EC50 was determined as 1 nM. Same read-out and setting: as for `CC(C)N1C(=O)c2c(O)c(=O)c(-c3nnc(Cc4c(F)cc(F)cc4F)s3)cn2N2CC[C@@H](C)C[C@@H]12` [II-060], the figure is 2.7 nM.

For `CCN1C(=O)c2c(O)c(=O)c(-c3nnc(Cc4ccc(F)cc4F)s3)cn2N2[C@H](C)CCC[C@@H]12` [II-066], the EC50 is 1.1 nM.

The values are drawn from US11453669B2, “Polycyclic pyridone derivative” (Shionogi & Co., Ltd., priority 2018, dated 2022).
